Series [1] has as its target EZH2-A677G (Homo sapiens (Human), UniProt Q15910, A677G). Description: EZH2-A677G mutant enzyme activity assay (HTRF). Conditions: read-out: IC50 for inhibiting the activity of enzyme EZH2-A677G. The series is classed as biochemical. Here is the method:
(§1) Histone H3 biotin labeling and S-adenosyl methionine were respectively diluted to 50 nM and 50 μM with a kinase buffer, then added to a 384-well plate at 4 μl/well. The test compound was diluted with a kinase buffer (it was diluted from the highest concentration 30 μM in 10 fold concentration gradient to 7 concentration points), then added to the 384-well microtiter plate at 4 μl/well. The plate was incubated at room temperature for 2 hours. Histone H3K27 Me3 monoclonal antibody and Streptavidin-XL665 were diluted to 30 nM and 500 nM by HTRF detection buffer, then added to the 384-well microplate at 10 µl/well and incubated for 1 hour. A well without an EZH2 enzyme and a compound was used as a negative control, and a well with an EZH2 enzyme but without a compound was used as a positive control. […] The compound logarithm concentration vs the inhibition percentage relative to the positive control well was plotted using GraphPad Prism, then the IC50 values were calculated.
On the technique in general: Time-resolved FRET reads energy transfer from a long-lived donor to a nearby acceptor.

Series [2] is described as follows: Pharmacokinetics assay in SD rats after intragastrical administration. The series is classed as in vivo. Conditions: both sexes, Sprague-Dawley, rat, plasma, po, 5 mg/kg; for Vd/F: read-out: Apparent Distribution Volume Vz/F; for AUC: read-out: Area Under Curve AUC; for CL/F: read-out: Clearance CL/F; for half-life: read-out: Half-Life t1/2 (converted); for MRT: read-out: Mean Residence Time MRT; for Cmax: read-out: Plasma Conc. Cmax. Here is the method:
Test Example 3. Pharmacokinetics Assay of the Compounds of Examples 1, 2, 3 and 9 of the Present Invention
SD rats were used as test animals. The drug concentration in plasma at different time points was determined by LC/MS/MS after intragastrical administration of the compounds of Examples 1, 2, 3 and 9 to the rats. The pharmacokinetic behavior of the compounds of the present invention was studied and evaluated in rats.
16 healthy adult Sprague-Dawley (SD) rats, half male and half female, were purchased from SINO-BRITSH SIPPR/BK LAB. ANIMAL LTD., CO, with Certificate No.: SCXK (Shanghai) 2008-0016.
The appropriate amount of each compound was weighed, and added with 0.5% CMC-Na (containing 1% Tween 80) to prepare a 1.0 mg/mL suspension by grinding.
After an overnight fast, 16 SD rats were divided into 4 groups equally, half male and half female, and administered intragastrically the test compounds at an administration volume of 5 mL/kg.
Blood (0.2 mL) was taken from the orbital sinus before administration and at 0.5, 1.0, 2.0, 4.0, 6.0, 8.0, 11.0, and 24.0 hours after administration. The samples were stored in heparinized tubes, and centrifuged for 10 minutes at 3,500 rpm to separate the blood plasma. The plasma samples were stored at −20° C.
The plasma concentration of the test compounds in rat plasma after intragastric administration was determined by LC-MS/MS.
Pharmacokinetic parameters of the compounds of Examples 1, 2, 3 and 9 of the present invention are shown below: […]

Series [3] concerns Pfeiffer cells. Description: In vitro anti-tumor cell growth assay (CellTiter-Glo), Pfeiffer. Conditions: Homo sapiens, 120 h; Pfeiffer cells (A677G mutant), 5 days; read-out: IC50 for inhibiting the growth activity of tumor cells (Pfeiffer) in vitro. Format: cell-based. As to the method: (§2) Test Example 2. Assay for Determining In Vitro Anti-Tumor Cell Growth Activity of the Example Compounds of the Present Invention
(§3) This method was used to determinate the inhibitory effect of the compounds of the present invention on the growth activity of tumor cells (Pfeiffer or WSU-DLCL2) in vitro. Pfeiffer cells carry A677G mutant, and WSU-DLCL2 cells carry Y641F mutant.
(§4) The lymphoma suspension cell line (Pfeiffer or WSU-DLCL2) was cultured in a RPMI-1640 medium containing 10% inactivated Fetal Bovine Serum, 100 U/mL penicillin, and 100 μg/mL streptomycin, and incubated in an incubator with 5% carbon dioxide at 37° C. under a saturated humidity condition, and passaged every 3-4 days.
(§5) A cell sudpension was prepared with a fresh cell medium, added to a 96-well cell culture plate at 8000 cells/well (Pfeiffer) or 2000 cells/well (WSU-DLCL2), and incubated in 5% carbon dioxide at 37° C. incubator overnight. On the day of the experiment, the EZH2 test compounds (final concentration: 20000, 2000, 200, 20, 2, 0.2 nM) were added into the experimental wells for 3 parallel wells per group. A control well with the medium alone but without cells was set up to obtain the background luminescent value. The cell culture plate was incubated in an incubator with 5% carbon dioxide at 37° C. for 5 days.
(§6) After the compounds were applied to the cells for 5 days, the cell culture plate was placed at room temperature for 30 minutes, then a CellTiter-Glo reagent equal to the volume of cell culture medium was added to each well. The contents were mixed on a shaker for 10 minutes, and the […] signal values were recorded. The cell growth inhibition rate was calculated, and the formula was: cell growth inhibiton rate=[(negative control control−experimental group)/(negative control group−background luminescent value)]×100%. The IC50 values (half inhibition rate IC50, i.e., a drug concentration that is required for 50% cell growth inhibition rate) were calculated by software from the cell growth inhibiton rate and the corresponding concentration.
(Cellular ATP, detected with luciferase, serves as a proxy for viable cell number.)

Series [4] relates to WSU-DLCL2 cells. Description: In vitro anti-tumor cell growth assay (CellTiter-Glo), WSU-DLCL2. Format: cell-based. Conditions: Homo sapiens, WSUDLCL2, 120 h; WSU-DLCL2 cells (Y641F mutant), 5 days; read-out: IC50 for inhibiting the growth activity of tumor cells (WSU-DLCL2) in vitro. Here is the method: as §2, §3, §4, §5, §6
In series [5] the target is EZH2-Y641F (Homo sapiens (Human), UniProt Q15910, Y641F). Description: EZH2-Y641F mutant enzyme activity assay (HTRF). The series is classed as biochemical. Conditions: read-out: IC50 for inhibiting the activity of enzyme EZH2-Y641F. Here is the method:
as §1

Consider 13 compounds from patent US10759787B2, “Benzofuran derivative, preparation method thereof and use thereof in medicine” (Jiangsu Hengrui Medicine Co., Ltd., priority 2015, dated 2020).

Sequence of EZH2-Y641F (Q15910 whole entry Y641F): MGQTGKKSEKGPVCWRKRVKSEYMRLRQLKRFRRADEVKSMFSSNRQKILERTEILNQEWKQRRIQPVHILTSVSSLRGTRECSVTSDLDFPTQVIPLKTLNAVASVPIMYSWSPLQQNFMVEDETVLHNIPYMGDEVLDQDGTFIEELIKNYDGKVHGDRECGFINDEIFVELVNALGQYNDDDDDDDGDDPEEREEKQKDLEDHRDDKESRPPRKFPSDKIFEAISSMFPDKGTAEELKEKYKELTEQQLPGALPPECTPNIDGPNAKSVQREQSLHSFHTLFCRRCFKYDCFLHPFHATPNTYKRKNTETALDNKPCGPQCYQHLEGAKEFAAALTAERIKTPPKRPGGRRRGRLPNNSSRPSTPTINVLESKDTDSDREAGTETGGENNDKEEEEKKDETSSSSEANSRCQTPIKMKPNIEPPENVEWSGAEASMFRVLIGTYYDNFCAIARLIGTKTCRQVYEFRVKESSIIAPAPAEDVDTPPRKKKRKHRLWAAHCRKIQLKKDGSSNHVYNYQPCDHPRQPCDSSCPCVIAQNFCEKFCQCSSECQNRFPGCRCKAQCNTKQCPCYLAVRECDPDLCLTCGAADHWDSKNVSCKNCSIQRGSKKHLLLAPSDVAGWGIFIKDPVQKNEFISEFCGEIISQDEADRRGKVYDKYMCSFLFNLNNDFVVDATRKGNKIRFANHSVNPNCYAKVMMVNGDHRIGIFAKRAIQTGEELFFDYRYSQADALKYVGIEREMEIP
Sequence of EZH2-Y641F (O75530 whole entry partner): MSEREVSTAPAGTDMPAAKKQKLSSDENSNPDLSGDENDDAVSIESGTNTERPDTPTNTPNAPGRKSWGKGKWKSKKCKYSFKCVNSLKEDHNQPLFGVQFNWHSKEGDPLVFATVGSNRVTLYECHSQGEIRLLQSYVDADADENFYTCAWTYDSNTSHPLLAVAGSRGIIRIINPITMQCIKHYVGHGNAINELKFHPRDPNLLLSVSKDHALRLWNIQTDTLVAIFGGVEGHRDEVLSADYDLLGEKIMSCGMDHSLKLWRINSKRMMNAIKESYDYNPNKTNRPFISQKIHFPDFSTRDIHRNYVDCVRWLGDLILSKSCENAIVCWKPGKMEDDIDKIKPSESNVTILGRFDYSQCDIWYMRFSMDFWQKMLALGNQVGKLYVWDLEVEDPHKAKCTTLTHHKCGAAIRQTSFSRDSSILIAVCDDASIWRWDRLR
Sequence of EZH2-Y641F (Q15022 whole entry partner): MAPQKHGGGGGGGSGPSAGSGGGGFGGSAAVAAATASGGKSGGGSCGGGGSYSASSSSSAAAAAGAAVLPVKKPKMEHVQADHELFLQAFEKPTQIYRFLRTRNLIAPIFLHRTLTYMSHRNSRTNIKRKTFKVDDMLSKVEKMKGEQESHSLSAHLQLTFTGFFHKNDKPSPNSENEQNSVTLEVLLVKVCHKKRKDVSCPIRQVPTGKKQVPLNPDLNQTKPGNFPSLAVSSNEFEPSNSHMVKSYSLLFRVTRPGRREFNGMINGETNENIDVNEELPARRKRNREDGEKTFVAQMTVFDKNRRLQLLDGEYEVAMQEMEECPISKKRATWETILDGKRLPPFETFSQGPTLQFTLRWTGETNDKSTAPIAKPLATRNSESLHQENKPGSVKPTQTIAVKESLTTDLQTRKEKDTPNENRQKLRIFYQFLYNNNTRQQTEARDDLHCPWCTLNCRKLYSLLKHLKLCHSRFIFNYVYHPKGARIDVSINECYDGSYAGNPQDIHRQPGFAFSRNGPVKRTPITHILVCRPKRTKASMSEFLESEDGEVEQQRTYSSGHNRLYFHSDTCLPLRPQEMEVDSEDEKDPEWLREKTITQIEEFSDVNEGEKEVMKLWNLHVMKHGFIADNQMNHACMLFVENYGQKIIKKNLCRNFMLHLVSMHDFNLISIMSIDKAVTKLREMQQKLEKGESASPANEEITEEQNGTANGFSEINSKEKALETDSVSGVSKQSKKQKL
Sequence of EZH2-Y641F (Q09028 whole entry partner): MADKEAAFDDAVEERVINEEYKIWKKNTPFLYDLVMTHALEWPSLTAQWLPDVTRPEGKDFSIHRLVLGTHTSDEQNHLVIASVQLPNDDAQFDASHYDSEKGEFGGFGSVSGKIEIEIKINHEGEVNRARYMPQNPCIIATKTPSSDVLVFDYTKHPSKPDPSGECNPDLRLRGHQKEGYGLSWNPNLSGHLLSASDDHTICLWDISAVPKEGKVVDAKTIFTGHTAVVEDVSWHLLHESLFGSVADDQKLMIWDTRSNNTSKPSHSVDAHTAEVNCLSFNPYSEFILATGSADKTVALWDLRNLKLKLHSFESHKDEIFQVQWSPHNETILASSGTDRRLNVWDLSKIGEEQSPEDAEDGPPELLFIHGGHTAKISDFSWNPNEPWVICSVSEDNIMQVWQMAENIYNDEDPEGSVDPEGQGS
Sequence of EZH2-Y641F (Q6ZN18 whole entry partner): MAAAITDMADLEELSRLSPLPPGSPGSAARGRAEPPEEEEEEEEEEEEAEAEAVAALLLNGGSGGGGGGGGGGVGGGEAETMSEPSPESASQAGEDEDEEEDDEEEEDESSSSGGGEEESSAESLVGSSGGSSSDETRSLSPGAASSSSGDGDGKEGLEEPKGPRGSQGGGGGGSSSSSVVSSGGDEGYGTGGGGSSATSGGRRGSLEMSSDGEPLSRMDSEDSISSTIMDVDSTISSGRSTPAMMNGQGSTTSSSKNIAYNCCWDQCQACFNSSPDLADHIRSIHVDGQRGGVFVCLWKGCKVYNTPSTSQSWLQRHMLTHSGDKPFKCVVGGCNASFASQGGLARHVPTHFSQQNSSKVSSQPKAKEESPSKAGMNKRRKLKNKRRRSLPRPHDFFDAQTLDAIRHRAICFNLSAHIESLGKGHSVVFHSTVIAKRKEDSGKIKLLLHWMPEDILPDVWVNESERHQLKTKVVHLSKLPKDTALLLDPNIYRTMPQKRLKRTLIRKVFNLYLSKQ
Sequence of EZH2-A677G (Q15910 whole entry A677G): as the sequence (Q15910 whole entry Y641F) above, with F641Y, A677G counted along it
Sequence of EZH2-A677G (O75530 whole entry partner): as the sequence (O75530 whole entry partner) above
Sequence of EZH2-A677G (Q15022 whole entry partner): as the sequence (Q15022 whole entry partner) above
Sequence of EZH2-A677G (Q09028 whole entry partner): as the sequence (Q09028 whole entry partner) above
Sequence of EZH2-A677G (Q6ZN18 whole entry partner): as the sequence (Q6ZN18 whole entry partner) above

In the case of `CCc1c(N(CC)C2CCOCC2)cc2oc(CN3CCCCC3)cc2c1C(=O)NCc1c(OC)cc(C)[nH]c1=O` [Example 1, 5-Ethyl-6-(ethyl(tetrahydro-2H-pyran-4-yl)amino)-N-((4-methoxy-6-methyl-2-oxo-1,2-dihydropyridin-3-yl)methyl)-2-(piperidin-1-ylmethyl)benzofuran-4-carboxamide], the IC50 in series [1] was found to be 6.4 nM. In addition, in series [2], the Vd/F came to 28.1 ± 18.4 L/kg, the AUC is 246 ± 127 ng·h/mL, the CL/F is 390 ± 201 mL/min/kg and the half-life is 0.8 ± 0.13 h. In series [2], the MRT amounted to 2.37 ± 0.18 h and the Cmax worked out at 88.9 ± 77.1 ng/mL. In addition, the IC50 in series [3] worked out at 2 nM.
With `CCc1c(N(CC)C2CCOCC2)cc2oc(CN3CCCCC3)cc2c1C(=O)NCc1c(C)cc(C)[nH]c1=O` [Example 2, N-((4,6-Dimethyl-2-oxo-1,2-dihydropyridin-3-yl)methyl)-5-ethyl-6-(ethyl(tetrahydro-2H-pyran-4-yl)amino)-2-(piperidin-1-ylmethyl)benzofuran-4-carboxamide], in series [4], the IC50 was determined as 39 nM. In series [2], the Vd/F stood at 41.4 ± 7.91 L/kg, the AUC was determined as 378 ng·h/mL, the CL/F was found to be 222 ± 23 mL/min/kg and the half-life was 2.2 ± 0.68 h. In addition, in series [2], the MRT stood at 3.18 ± 0.3 h and the peak concentration (Cmax) turned out to be 105 ± 44.5 ng/mL. Further, the IC50 in series [3] amounted to 13 nM.
Turning to `CCc1cc(C)[nH]c(=O)c1CNC(=O)c1c(CC)c(N(CC)C2CCOCC2)cc2oc(CN3CCCCC3)cc12` [Example 3, 5-Ethyl-6-(ethyl(tetrahydro-2H-pyran-4-yl)amino)-N-((4-ethyl-6-methyl-2-oxo-1,2-dihydropyridin-3-yl)methyl)-2-(piperidin-1-ylmethyl)benzofuran-4-carboxamide], the IC50 in series [1] worked out at 38 nM. Also, in series [2], the Vd/F was 40.5 ± 7.97 L/kg, the AUC came out at 487 ± 12 ng·h/mL, the CL/F was found to be 171 ± 4.4 mL/min/kg and the half-life was 2.73 ± 0.53 h. Moreover, in series [2], the MRT amounted to 4.65 ± 0.184 h and the Cmax stood at 91.5 ± 5.6 ng/mL. Also, in series [3], the concentration for half-maximal inhibition (IC50) stood at 4 nM.
Turning to `CCN(c1cc2occc2c(C(=O)NCc2c(OC)cc(C)[nH]c2=O)c1C)C1CCOCC1` [Example 18, 6-(Ethyl(tetrahydro-2H-pyran-4-yl)amino)-N-((4-methoxy-6-methyl-2-oxo-1,2-dihydropyridin-3-yl)methyl)-5-methylbenzofuran-4-carboxamide], the IC50 in series [1] is 4 nM; in series [4], 113 nM; in series [3], 20 nM; in series [5], 2.3 nM.
In the case of `CCN(c1cc2oc(C)cc2c(C(=O)NCc2c(OC)cc(C)[nH]c2=O)c1C)C1CCOCC1` [Example 19, 6-(Ethyl(tetrahydro-2H-pyran-4-yl)amino)-N-((4-methoxy-6-methyl-2-oxo-1,2-dihydropyridin-3-yl)methyl)-2,5-dimethylbenzofuran-4-carboxamide], the IC50 was found to be 2.9 nM in series [1], 232 nM in series [4], 14 nM in series [3] and 2.8 nM in series [5].
On to `CCN(c1cc2occ(C)c2c(C(=O)NCc2c(OC)cc(C)[nH]c2=O)c1C)C1CCOCC1` [Example 20, 6-(Ethyl(tetrahydro-2H-pyran-4-yl)amino)-N-((4-methoxy-6-methyl-2-oxo-1,2-dihydropyridin-3-yl)methyl)-3,5-dimethylbenzofuran-4-carboxamide], for which the figures for the IC50 in series [1] and in series [5] were 5.9 nM and 5.6 nM, respectively.
On to `COc1cc(C)[nH]c(=O)c1CNC(=O)c1c(C)c(N(C)C2CCOCC2)cc2occc12` [Example 23, N-((4-Methoxy-6-methyl-2-oxo-1,2-dihydropyridin-3-yl)methyl)-5-methyl-6-(methyl(tetrahydro-2H-pyran-4-yl)amino)benzofuran-4-carboxamide], for which the IC50 in series [1] turned out to be 4.8 nM; in series [3], 68 nM; in series [5], 0.3 nM.
As to `CCN(c1cc2occc2c(C(=O)NCc2c(OC)cc(C)[nH]c2=O)c1C)[C@H]1CC[C@H](N(C)C)CC1` [Example 24, 6-(((1r,4r)-4-(Dimethylamino)cyclohexyl)(ethyl)amino)-N-((4-methoxy-6-methyl-2-oxo-1,2-dihydropyridin-3-yl)methyl)-5-methylbenzofuran-4-carboxamide], the 50% inhibitory concentration (IC50) in series [4] is 45 nM; in series [3] it was 19 nM; in series [5] it was 3.4 nM.
Consider `CCN(c1cc2occc2c(C(=O)NCc2c(OC)cc(C)[nH]c2=O)c1C)C1CCN(C(C)=O)CC1` [Example 26, 6-((1-Acetylpiperidin-4-yl)(ethyl)amino)-N-((4-methoxy-6-methyl-2-oxo-1,2-dihydropyridin-3-yl)methyl)-5-methylbenzofuran-4-carboxamide], for which the results for the IC50 in series [1] and in series [5] were 2.9 nM and 2.8 nM, respectively.
With `CCN(c1cc2oc(C#N)cc2c(C(=O)NCc2c(OC)cc(C)[nH]c2=O)c1C)C1CCOCC1` [Example 30, 2-Cyano-6-(ethyl(tetrahydro-2H-pyran-4-yl)amino)-N-((4-methoxy-6-methyl-2-oxo-1,2-dihydropyridin-3-yl)methyl)-5-methylbenzofuran-4-carboxamide], the IC50 in series [1] was 0.8 nM; in series [3], 17 nM.
As for `CCc1c(N(CC)C2CCC(F)(F)CC2)cc2occc2c1C(=O)NCc1c(OC)cc(C)[nH]c1=O` [Example 31, 6-((4,4-Difluorocyclohexyl)(ethyl)amino)-5-ethyl-N-((4-methoxy-6-methyl-2-oxo-1,2-dihydropyridin-3-yl)methyl)benzofuran-4-carboxamide], the results for the IC50 in series [1], in series [3] and in series [5] were 2.7 nM, 69 nM and 4.5 nM, respectively.
As to `CCc1c(N(CC)C2CC(F)(F)C2)cc2occc2c1C(=O)NCc1c(OC)cc(C)[nH]c1=O` [Example 32, 6-((3,3-Difluorocyclobutyl)(ethyl)amino)-5-ethyl-N-((4-methoxy-6-methyl-2-oxo-1,2-di hydropyridin-3-yl)methyl)benzofuran-4-carboxamide], the IC50 in series [1] worked out at 4 nM; in series [4] it was 190 nM; in series [3], 18 nM.
On to `CCc1c(N(CC)C2CCS(=O)(=O)CC2)cc2occc2c1C(=O)NCc1c(OC)cc(C)[nH]c1=O` [Example 33, 6-((1,1-Dioxidotetrahydro-2H-thiopyran-4-yl)(ethyl)amino)-5-ethyl-N-((4-methoxy-6-methyl-2-oxo-1,2-dihydropyridin-3-yl)methyl)benzofuran-4-carboxamide], for which the IC50 in series [1] was 2.7 nM; in series [3], 22 nM; in series [5] it was 0.8 nM.

As a reminder, the IC50 is the concentration needed to halve the response being measured. A word on the AUC: it is concentration integrated over time. As usually defined, the MRT is the average time that molecules of a dose stay in the body. The term Cmax denotes the maximum level reached in the sampled fluid or tissue.
